Laboratory results taken from US20040038958A1, “Topical treatment of skin diseases” (priority 2002, published 2004).
“Also recorded” adds a separate entry of the source.

What was measured:
mice sensitized to TDI = test: Mouse ear swelling test in mice sensitized to toluene-2,4-diisocyanate (TDI), topical application; assay type: in vivo, BALB/c-mice; details: for TDI-induced ear swelling: AWD 12-281 1%, cilomilast 3%, diflorasone 0.05%
Experimental: FIG. 6: Effect of PDE 4 inhibitors on TDI induced ear swelling in mice. […] After 1 h (grey bars) groups of mice were treated with 3% AWD 12-281, 10% cilomilast or left untreated (TDI). After 24 h, ear swelling was determined (black bars). […] Female BALB/c-mice were obtained from Charles River (Sulzfeld, Germany) at the age of 8 weeks (20 g body weight). All animals were healthy and were housed in groups of six mice per cage at 22° C. with a 12-h light/dark-cycle. Water and a standard diet (Altromin, […], Germany) were available ad libitum. After settling in for 1 week, the abdominal skin of the mice was shaved and depilated with Veet®. Subsequently, the horny layers of the abdominal skin were stripped off ten times with adhesive tapes. […] Before as well as 24 h after challenge, the ear thickness was measured with a cutimeter (model 7309, Mitutoyo, Neuss, Germany) The swelling was calculated by comparison of the values before challenge with 24 h after challenge. […] The other mice were equally distributed to the treatment groups (n=6) according to their swelling intensity, so that each group contained animals which had responded to varying extents. They had to rest until the ear thickness had reached almost a normal level after 7 days. To exclude residues of the allergen on the ears, the untreated right ears were used for the main experiment. One group of mice (n=6) was not sensitized and challenged. […] Two hours before TDI-challenge, the third and fourth group (each n=6) were treated with 20 μl (10 μl on both, the inner and outer surface) AWD 12-281 (1%=200 μg) or 20 μl cilomilast (3%=600 μg; each in acetone/DMSO 9:1) to the right ears. […] These mice were sacrificed by cervical dislocation 24 hours after TDI challenge and the ears were collected (see below). […] Five weeks after the first challenge, the animals treated with AWD 12-281 (1%) and cilomilast (3%) “therapeutically” were challenged again. Before challenge, one group was treated with AWD 12-281 (3%).

[1] = test system: macrophage inflammatory protein 2; test: MIP-2 in homogenized mouse ears after TDI challenge (ELISA); assay type: in vivo, BALB/c-mice
Experimental: One part of the collected ears was fixed in 4% formaldehyde for histological section and stained with haematoxylin-eosin with respect to dermal thickness and granulocyte accumulation. These parameters were measured in 10 fields at 40 times magnification. The remaining tissue was shock-frozen and stored in liquid nitrogen immediately after sampling. For the determination of biochemical parameters, the mice ears were homogenized under liquid nitrogen. The homogenates were taken in 200 μl RPMI 1640 medium and the protease inhibitor Pefabloc® (1 mmol) was added and the samples were mixed intensively. After centrifugation (10000 g, 10 min, 4° C.), the supernatant was collected and the protein content was determined. The samples were stored at −80° C. until the cytokines were determined. Interleukin (IL) 4, IL-6 and MIP-2 were measured in the samples by ELISA using commercially available kits according to manufacturers instructions.

[2] = test system: human cells from nasal polyps; details: antigen stimulated; Kuss et al., 2002; cited from earlier work

SMILES: O=C(Nc1c(Cl)cncc1Cl)C(=O)c1cn(Cc2ccc(F)cc2)c2ccc(O)cc12 [AWD 12-281, N-(3,5-Dichloro-4-pyridinyl)-2-[1-(4-fluoro-benzyl)-5-hydroxy-1 H-indol-3-yl]-2-oxoacetamide]
- Ear swelling (%) (mice sensitized to TDI; AWD 12-281 3% topical before challenge, rechallenge five weeks after first challenge, 24 h after TDI challenge, vehicle control 51 ± 7, mean ± s.e.): 1 ± 2 %
- TDI-induced ear swelling (mice sensitized to TDI; single topical application 2 h before TDI challenge, 1, 5 and 24 h after challenge): inhibited the TDI-induced swelling significantly at all measured times
- TDI-induced ear swelling (mice sensitized to TDI; topical 1 h after TDI challenge (therapeutic), 24 h after challenge): reduced the inflammatory response to TDI significantly; also recorded: inhibited the TDI induced ear swelling significantly
- TDI-induced ear swelling (mice sensitized to TDI; topical 1 h after TDI challenge (therapeutic), 24 h after challenge, listed as AWD12-281): significant inhibition of ear swelling
- TDI induced ear swelling (mice sensitized to TDI; treated 1 h after 0.5% TDI, 3% AWD 12-281, 10% cilomilast, ear swelling after 24 h (FIG. 6)): reduced ear swelling significantly
- concentration of MIP-2 in mouse skin ([1]; 24 h after TDI challenge, AWD 12-281 3%, rechallenge): diminished the increase of the MIP-2 concentration significantly
- concentration of macrophage inflammatory protein 2 in homogenized mouse ears ([1]; 24 h after TDI challenge, topical 2 h before challenge, AWD 12-281 1%, cilomilast 3%, diflorasone 0.05%): reduced the increase slightly; also recorded: reduced this increase slightly
- MIP-2, mean inhibition (%) of the TDI induced synthesis ([1]; AWD 12-281 3%, cilomilast 3%, diflorasone 0.05%, 24 h after TDI challenge): 75%
- MIP-2 ([1]; AWD 12-281 3%, homogenized mouse ears 24 h after TDI challenge (rechallenge), vehicle control 286 ± 39, mean ± s.e.): 72 ± 8 pg/400 µg protein
- release of inflammatory mediators such as GM-CSF, TNF-α and histamine [2]: inhibited the release of inflammatory mediators
